Reference: ChEMBL document CHEMBL1139158, “Prenyloxyphenylpropanoids as novel lead compounds for the selective inhibition of geranylgeranyl transferase I” (Bioorg Med Chem Lett, 2007)
pIC50: −log10 of the molar value.

How the values were obtained:
[1] = test system: Protein farnesyltransferase (Homo sapiens); assay: Inhibition of FTase at 100 uM
[2] = Inhibition of GGTase 1; set-up: species or system Homo sapiens
Homo sapiens = organism: Homo sapiens; assay: Inhibition of GGTase 1 at 100 uM

Row | Structure (SMILES) | inhibition [1] [%] | pIC50 [2] | inhibition (Homo sapiens) [%]
1 | COc1cc(/C=C/C(=O)O)ccc1OC/C=C(\C)CC/C=C(\C)CCC=C(C)C | 11 | 4.18 | 83.9
2 | CC(C)=CCC/C(C)=C/CC/C(C)=C/COc1ccc(/C=C/C(=O)O)cc1 | – | 4.55 | 93.5
3 | CC(C)=CCC/C(C)=C/COc1ccc(C(=O)O)cc1 | – | – | 0
4 | COc1cc(C(=O)O)ccc1OC/C=C(\C)CCC=C(C)C | 0 | – | 0
5 | COc1cc(/C=C/C(=O)O)ccc1OCC=C(C)C | 9.3 | – | 31
6 | COc1c(OC/C=C(\C)CCC=C(C)C)ccc2ccc(=O)oc12 | 15.5 | – | 34.2
7 | COc1cc(C(=O)O)ccc1OCC=C(C)C | 2.4 | – | 0
8 | CCOC(=O)/C=C/c1ccc(OC/C=C(\C)CCC=C(C)C)c(OC)c1 | 5.5 | – | 3
